From patent US20260274922A1, “SYNTHETIC ESTROGEN RECEPTOR (ER)-DERIVED PEPTIDE” (THE TEXAS A&M UNIVERSITY SYSTEM, priority 2023, published 2026)
Where no end group is shown, it is not given here. The star is where a group is joined. FITC = O=C1OC2(c3ccc(O)cc3Oc3cc(O)ccc32)c2ccc(NC(=S)*)cc21

Assays:
IRS1 protein domains = molecular target: T1, IRS1 protein domains (Homo sapiens, UniProt P35568); assay: AF1 peptide and IRS1 protein interaction (co-immunoprecipitation, FITC signal); format: binding; settings: HEK293 cells, 10 μM FITC-labelled peptide 3 h
T1 construct: expressed in transfected cells; host or cells: HEK293
T1 sequence (P35568 1-300): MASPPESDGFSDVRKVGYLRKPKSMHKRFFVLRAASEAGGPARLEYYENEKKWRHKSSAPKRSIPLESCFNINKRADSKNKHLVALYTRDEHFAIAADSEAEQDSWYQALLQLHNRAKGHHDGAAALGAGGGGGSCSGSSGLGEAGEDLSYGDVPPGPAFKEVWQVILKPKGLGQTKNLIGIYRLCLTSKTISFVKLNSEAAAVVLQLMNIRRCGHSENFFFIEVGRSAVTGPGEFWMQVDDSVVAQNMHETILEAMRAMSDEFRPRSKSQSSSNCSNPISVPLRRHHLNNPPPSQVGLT
Experimental: AF1 peptide and IRS1 protein interaction. HEK293 cells were transfected with Flag-IRS1 or Flag-IRS1 truncated domains using lipofectamine 3000 for 30 h, followed by treatment of 10 μM control and AF1 peptides labelled with FITC fluorescence for 3 h. After 10 μM MG132 treatment for 1 h, cell protein was extracted, and Flag-labelled proteins were immunoprecipitated. The intensity of control and AF1 peptide was calculated through measuring FITC fluorescence signal with multiplex reader. The results were normalized using IgG group.

[1] = tested on: insulin signaling (IRS1, pAKT); assay: Insulin sensitivity in ERα deficient primary mouse hepatocytes; format: cell-based
Experimental: Primary hepatocytes isolation and cell culture. Primary hepatocytes were isolated. Male mice at age of 8-12 weeks were infused with a perfusion buffer A (calcium and magnesium-free HBSS supplemented with 10 mM HEPES, […], 1 mM glucose, and 1% penicillin-streptomycin, pH 7.4) through portal vein for 6-8 min. Then perfusion buffer A was changed to buffer B (calcium and magnesium-free HBSS supplemented with 10 mM HEPES, 1 mM CaCl2), 1 mM glucose, 1% penicillin-streptomycin, and 0.5 mg/mL collagenase II, pH 7.4). […] Liver cells were suspended and passed through a 70 μm cell strainer, followed by centrifuge at 1700 rpm for 2 min. Pellets were resuspended with Percoll at final concentration of 36% and centrifuged at 1800 rpm for 6 min. The hepatocyte pellet was washed and suspended with DMEM supplemented with 10% FBS and 1% penicillin-streptomycin in collagen-coated plates. The HepG2 cell line was purchased from Abcam and cultured with DMEM medium supplemented with 10% FBS and 1% penicillin-streptomycin in collagen-coated plates. The human embryo kidney (HEK) 293 cell line was purchased from Sigma and cultured with DMEM medium supplemented with 10% FBS and 1% penicillin-streptomycin. FBS-free DMEM medium was used to culture cells during the experiments.
(§1) Co-immunoprecipitation and Western blotting analysis. […] Protein bands were detected using a ChemiDoc image system.

IRS1 = molecular target: T2, IRS1 (Homo sapiens, UniProt P35568); assay: Effect of AF1 peptide on IRS1 ubiquitination in HEK293T cells; format: cell-based
T2 sequence (P35568 1-1242): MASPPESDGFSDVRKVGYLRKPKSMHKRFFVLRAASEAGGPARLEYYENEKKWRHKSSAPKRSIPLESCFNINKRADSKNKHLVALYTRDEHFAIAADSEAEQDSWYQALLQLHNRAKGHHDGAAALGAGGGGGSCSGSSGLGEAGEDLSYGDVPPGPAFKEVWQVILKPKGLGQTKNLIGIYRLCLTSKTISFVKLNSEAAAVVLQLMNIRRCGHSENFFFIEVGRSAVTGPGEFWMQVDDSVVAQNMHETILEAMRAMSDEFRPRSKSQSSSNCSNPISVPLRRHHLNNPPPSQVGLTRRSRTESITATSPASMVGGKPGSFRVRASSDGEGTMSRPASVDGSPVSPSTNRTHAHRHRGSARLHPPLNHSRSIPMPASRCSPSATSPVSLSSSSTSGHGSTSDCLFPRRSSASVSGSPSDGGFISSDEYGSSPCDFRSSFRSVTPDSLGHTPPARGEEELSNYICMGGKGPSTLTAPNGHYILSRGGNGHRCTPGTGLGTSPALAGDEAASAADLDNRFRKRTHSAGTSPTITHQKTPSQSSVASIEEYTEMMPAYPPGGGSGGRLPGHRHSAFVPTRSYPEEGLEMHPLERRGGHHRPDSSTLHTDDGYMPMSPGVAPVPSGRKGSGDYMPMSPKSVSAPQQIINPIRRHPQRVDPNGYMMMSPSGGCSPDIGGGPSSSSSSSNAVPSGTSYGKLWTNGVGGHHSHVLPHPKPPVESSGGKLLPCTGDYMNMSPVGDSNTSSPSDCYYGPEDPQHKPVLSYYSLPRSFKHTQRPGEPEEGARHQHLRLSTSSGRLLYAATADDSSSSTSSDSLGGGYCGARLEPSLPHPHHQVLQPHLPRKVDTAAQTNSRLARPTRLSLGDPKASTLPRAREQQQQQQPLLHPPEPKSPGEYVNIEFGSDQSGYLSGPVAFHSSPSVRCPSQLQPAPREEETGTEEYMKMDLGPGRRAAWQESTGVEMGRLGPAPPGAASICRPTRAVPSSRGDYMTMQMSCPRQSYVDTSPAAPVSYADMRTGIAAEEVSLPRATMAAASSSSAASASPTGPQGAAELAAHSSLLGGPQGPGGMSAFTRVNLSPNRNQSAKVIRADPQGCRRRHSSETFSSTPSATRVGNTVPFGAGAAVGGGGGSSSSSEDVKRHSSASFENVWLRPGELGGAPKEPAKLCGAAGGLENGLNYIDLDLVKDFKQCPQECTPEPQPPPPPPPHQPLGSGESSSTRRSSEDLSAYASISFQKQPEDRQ
Excerpt: as §1

12-month-old female mice = assay: AF1 peptide treatment of aging female mice (12-month-old); format: in vivo, mouse; settings: 5 mg/kg i.v. twice per week, 5 weeks
Experimental: Postmenopause in old women is highly associated with increased risk of diabetes.
Glucose and insulin tolerance tests. For glucose tolerance tests, mice were fasted for 16 h and intraperitoneally (i.p.) injected with dextrose (1 g/kg body weight for mice fed with regular diet; 0.5 g/kg body weight for db/db mice or mice fed with HFD). For insulin tolerance tests, mice were fasted for 6 h and i.p. injected with insulin solution (1 U/kg body weight for male mice; 0.75 U/kg body weight for female mice). Blood glucose levels were measured using glucometer at indicated time points.

[2] = ERα deficient primary hepatocytes

Sequence: YGRKKRRQRRRTKASGMALLHEPLNRPQLKIPLERDSSKPAVYNY ({FITC}-YGRKKRRQRRRTKASGMALLHEPLNRPQLKIPLERDSSKPAVYNY) [AF1 peptide]
- interaction with IRS1 protein domains (IRS1 protein domains): interacted with the IRS1 1-300 domain
- increase in IRS1 protein levels [1, 2]: 80%
- increase in pAKT-S473 protein levels [1, 2]: 46%
- increase in pAKT-T308 protein levels [1, 2]: 50%
- rescue of ERα deficiency-induced insulin resistance ([1]; compared to ERαF/F hepatocytes): partially rescued
- ubiquitination of IRS1 (IRS1): attenuated
- glucose tolerance (12-month-old female mice): nonsignificant increase
- insulin sensitivity (12-month-old female mice): modest improvement
